Test results from patent US6821530B2, “Polymer composite compositions” (Shriners Hospitals for Children, priority 2000, dated 2004).

Columns and labels:
[1] = tested on: primary tendon fibroblast cultures; experiment: Fibroblast replication after single NDGA exposure; type: cell-based, calf
Description: (§1) Cell cultures: Digital extensor tendons were excised fresh from new born calves euthanized at a local abattoir and held in Dulbecco's Phosphate Buffered Saline during dissection and preparation for culture. Tendons were minced, weighed, and then digested with 0.1% w/v testicular hyaluronidase in 0.15 M NaCl, 0.1 M NaH2PO4, pH 7.0 (5 ml/g wet tissue weight) at 37° C. for 45 minutes. The hyaluronidase wash was decanted and the tissue was next digested with 5 mg/g tissue of Pronase E and 5 mg/g tissue of collagenase in 4% bovine serum albumen in DMEM/Ham F12 medium at 37° C. overnight. Cells were isolated from the tissue residue and washed with PBS. Cells were dispersed in DMEM/Ham F12 medium, counted, and plated on 24-well culture plates. Cells were cultured in DMEM/Ham F12 containing 10% FBS unless otherwise noted.
Effect of NDGA on fibroblast replication. To determine whether NDGA or oxidation products derived from the cross-linking reaction influenced cell replication, primary tendon fibroblast cultures were treated with a single exposure at the start of culture with concentrations of NDGA from […]. Fibroblasts were subsequently cultured for 1, 2, and 4 weeks. At each time point, the number of viable cells in each treatment group was determined. The lower NDGA concentrations, […], had no effect on cell replication (FIG. 15).

[2] = tested on: confluent tendon fibroblasts; experiment: Cytotoxicity test of NDGA and its oxidation products, CYQUANT viable cell number; type: cell-based, calf
Description: as §1
Cytotoxicity tests: The potential toxicity of NDGA, its reaction products, and the NDGA cross-linked fibers was determined using confluent tendon fibroblasts. NDGA was tested by dissolving NDGA in DMSO, then directly diluting in the medium containing 10% FBS to the desired final concentrations. […] Fibroblasts were cultured in the presence of NDGA or its oxidation products for 24 hours, and then the number of viable cells was measured with the CYQUANT® Cell Proliferation Assay Kit (Molecular Probes).

[3] = NDGA quantitation in culture medium by capillary zone electrophoresis; type: physicochemical; parameters: Initial NDGA remaining in medium: dose or concentration left out as unconfirmed
Description: NDGA Quantitation: The amount of NDGA in the buffers, eluents, and medium was determined by capillary zone electrophoresis on a Dionex CES. A sodium borate buffer (10 mM sodium borate, 50 mM boric acid, pH 8.0) was chosen for electrophoresis because it was known that borate efficiently complexes with catechols and increases absorptivity (Waite et al., Methods. Enzymol. 107:397-413, 1984). Samples were diluted in electrophoresis buffer, loaded by electrophoresis (5000 V for 5 seconds) onto a […] inner diameter×80 cm long hollow glass capillary, and electrophoresed at 20 kV. NDGA was detected by absorbance at 280 nm. The amount of NDGA in the experimental samples was calculated from the peak area following calibration of the NDGA standards dissolved directly in capillary zone electrophoresis (CZE) buffer. Based on capillary zone electrophoretic analysis of NDGA-containing medium, NDGA disappears from the medium with time in culture, even in the absence of cells (FIGS. 13A and 13B). NDGA was dissolved in DMSO to 10 mM and then diluted 100-fold into the medium. For the zero time point, the medium containing NDGA was diluted 3-fold with CZE buffer and electrophoresed immediately. For the 24 hour time point, the medium was incubated at 37° C. in a cell culture incubator before diluting 3-fold and electrophoresing. […] The fate of the NDGA is unclear. Its disappearance may involve oxidation of the catechols to quinones, since the medium developed a brown pigment similar to that formed from chemically oxidized NDGA. In the medium containing […] NDGA, less than 10% of the initial NDGA remained after 24 hours, decreasing the NDGA concentration to below […] (FIGS. 13A and 13B).

[4] = medium containing, after 24 hours

CC(Cc1ccc(O)c(O)c1)C(C)Cc1ccc(O)c(O)c1 (centres unmarked) [NDGA, Nordihydroguaiaretic acid]
Effect on cell replication ([1]; 1 and 10 mM NDGA, culture 1, 2, 4 weeks): no effect
Effect on cell replication ([1]; highest NDGA concentration): toxic to the cells
Effect on cell replication ([1]; one hundred millimolar NDGA, after first week rate similar to control): temporary delay in replication
Reduction in viable cells ([2]; 1000 mM NDGA, after 24 hr): 80%
Effect on cell viability over that of DMSO alone ([2]; NDGA at 1, 10, and 100 mM, 24 hours of exposure): little effect
NDGA vanished from medium ([3]; 10 mM in DMSO diluted 100-fold into medium, 37° C., no cells, by 24 hours): over 95%
Initial NDGA remaining in medium [3, 4]: less than 10%
NDGA concentration in medium [3, 4]: below 100 mM
